EP4775574A1, “FURAN RING-CONTAINING COMPOUND, PHARMACEUTICAL COMPOSITION THEREOF, AND USE THEREOF” (Wuhan Xirui Pharmaceutical Technology Co., Ltd, priority 2023, dated 2025)

Biological target: T1, Nav1.8 sodium channel (Homo sapiens, UniProt Q9Y5Y9)
T1 construct: host or cells: CHO
Assay: Blocking activity against sodium channel 1.8 (Nav1.8), whole-cell patch-clamp, inhibition rate
Format: cell-based
Conditions: not given
Method: Experimental objective: The effects of the compounds on the current of the voltage-gated sodium channel (NaV) 1.8 subtype were detected by patch-clamp technique • 2. […] When the cells were detached from the bottom of the dish, about 5 mL of preheated complete medium at 37°C was added. The cell suspension was gently pipetted up and down to separate the aggregated cells. The cell suspension was transferred to a sterile centrifuge tube and centrifuged at 1000 rpm for 5 min to collect the cells. […] First, the voltage was stepped from -130 mV to -10 mV in 10 mV increments for 5 s, and then a 0 mV depolarizing pulse was applied to obtain the half-inactivation voltage (Vhalf). The resting state and half-inactivated state of the sodium current were detected by using a double-pulse protocol. First, the first depolarizing pulse (TP1) was applied to 0 mV for 50 ms to detect the sodium current in the resting state. Then, the voltage was adjusted to Vhalf and maintained for 5 s, followed by restoration of the voltage to -120 mV and maintenance for 20 ms, after which the second depolarizing pulse (TP2) was applied to 0 mV for 50 ms to detect the sodium current in the half-inactivated state. Finally, the voltage was restored to the clamping voltage of -120 mV. Data were repeatedly collected every […] to observe the effect of the drug on the peak values of sodium currents in the two different states. Experimental data were collected by the EPC 10 amplifier (HEKA) and stored in the PatchMaster (HEKA) software. • (2) During patch clamp operation, capillary glass tubes were first pulled into recording electrodes using a microelectrode puller, then the electrodes filled with intracellular solution were installed into the microelectrode holder. Under an inverted microscope, the micromanipulator was used to bring the recording electrode into contact with the cell, and negative pressure suction was applied to form a GΩ seal. At this time, fast capacitance compensation was performed, and then negative pressure was continuously applied to rupture the cell membrane and form the whole-cell recording mode. Finally, slow capacitance compensation was performed, and related parameters were recorded. Leak compensation was not applied. • (3) When the sodium current of whole-cell recording became stable, drug administration was started, and each drug concentration was applied for 5 min (or until the current became stable) before the next concentration was tested. The coverslip coated with cells was placed in the recording bath under an inverted microscope, and the blank control external solution and the test compound working solution were perfused through the recording bath in sequence from low concentration to high concentration by gravity, thereby acting on the cells, while a peristaltic pump was used for liquid exchange during recording. The current detected in the external solution without compounds for each cell was used as its own control group. Each concentration was independently tested twice. All electrophysiological experiments were conducted at room temperature.
First, the current after the effect of each drug concentration and the blank control current were normalized, then the inhibition rate corresponding to each drug concentration was calculated, that is, (1-Icompound /Icontrol), and the mean, standard deviation (SD), and standard error (SE) of the inhibition rate for each concentration were calculated, and the data were expressed as mean ± SE.

T1 sequence (Q9Y5Y9 whole entry): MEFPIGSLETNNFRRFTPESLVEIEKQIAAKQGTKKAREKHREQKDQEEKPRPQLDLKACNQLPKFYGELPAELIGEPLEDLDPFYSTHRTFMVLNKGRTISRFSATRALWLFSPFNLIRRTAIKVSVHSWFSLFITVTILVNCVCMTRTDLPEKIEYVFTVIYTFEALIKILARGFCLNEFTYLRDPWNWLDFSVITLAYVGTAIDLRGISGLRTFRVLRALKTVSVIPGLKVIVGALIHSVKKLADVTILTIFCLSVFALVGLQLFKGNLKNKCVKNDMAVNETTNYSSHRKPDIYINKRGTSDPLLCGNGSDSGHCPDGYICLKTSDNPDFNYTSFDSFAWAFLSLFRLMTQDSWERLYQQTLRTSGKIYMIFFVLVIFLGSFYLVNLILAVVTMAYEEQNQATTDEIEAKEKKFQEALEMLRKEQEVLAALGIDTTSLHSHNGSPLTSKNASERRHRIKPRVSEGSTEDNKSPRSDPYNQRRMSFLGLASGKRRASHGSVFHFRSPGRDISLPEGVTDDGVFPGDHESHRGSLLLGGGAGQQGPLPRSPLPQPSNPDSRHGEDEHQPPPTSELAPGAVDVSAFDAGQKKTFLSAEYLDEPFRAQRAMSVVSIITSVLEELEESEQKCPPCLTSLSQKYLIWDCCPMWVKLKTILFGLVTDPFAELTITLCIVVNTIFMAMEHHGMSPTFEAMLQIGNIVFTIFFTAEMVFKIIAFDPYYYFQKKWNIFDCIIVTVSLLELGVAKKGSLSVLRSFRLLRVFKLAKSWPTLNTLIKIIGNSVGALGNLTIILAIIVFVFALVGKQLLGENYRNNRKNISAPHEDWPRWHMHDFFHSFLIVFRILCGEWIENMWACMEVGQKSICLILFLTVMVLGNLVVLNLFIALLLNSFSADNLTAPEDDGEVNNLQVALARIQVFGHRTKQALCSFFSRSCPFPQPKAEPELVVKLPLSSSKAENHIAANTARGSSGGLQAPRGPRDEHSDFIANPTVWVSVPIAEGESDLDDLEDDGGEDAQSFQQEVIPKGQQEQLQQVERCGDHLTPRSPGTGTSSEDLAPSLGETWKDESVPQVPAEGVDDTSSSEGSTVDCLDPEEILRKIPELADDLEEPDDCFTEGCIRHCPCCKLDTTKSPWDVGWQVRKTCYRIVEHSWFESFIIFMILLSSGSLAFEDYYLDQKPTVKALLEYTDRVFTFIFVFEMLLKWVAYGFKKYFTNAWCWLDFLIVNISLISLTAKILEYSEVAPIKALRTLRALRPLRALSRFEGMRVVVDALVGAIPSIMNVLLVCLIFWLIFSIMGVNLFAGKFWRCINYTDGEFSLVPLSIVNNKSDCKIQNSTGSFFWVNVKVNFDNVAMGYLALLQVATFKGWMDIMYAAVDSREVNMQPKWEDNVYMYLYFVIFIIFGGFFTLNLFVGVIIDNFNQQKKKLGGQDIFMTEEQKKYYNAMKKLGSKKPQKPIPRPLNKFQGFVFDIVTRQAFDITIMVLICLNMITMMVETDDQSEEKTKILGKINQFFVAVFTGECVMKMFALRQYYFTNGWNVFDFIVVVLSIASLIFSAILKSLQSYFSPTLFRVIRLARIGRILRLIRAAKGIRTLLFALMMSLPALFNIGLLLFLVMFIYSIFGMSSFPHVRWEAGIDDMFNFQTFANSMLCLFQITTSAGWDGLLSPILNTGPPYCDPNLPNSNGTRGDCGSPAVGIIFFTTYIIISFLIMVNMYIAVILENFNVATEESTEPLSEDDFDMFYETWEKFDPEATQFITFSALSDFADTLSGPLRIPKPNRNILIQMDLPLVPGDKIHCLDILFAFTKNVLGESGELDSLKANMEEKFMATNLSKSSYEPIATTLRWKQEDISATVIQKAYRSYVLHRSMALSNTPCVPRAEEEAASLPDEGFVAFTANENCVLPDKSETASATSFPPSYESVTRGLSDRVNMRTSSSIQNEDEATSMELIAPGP

Inhibition rate (%)	Compound
90.96	COc1c([C@H]2[C@H](C(=O)Nc3cc[n+]([O-])c(C(=N)NO)c3)O[C@@](C)(C(F)(F)F)[C@H]2C)ccc(F)c1F [Example 8]
76.36	CCONC(=O)c1cc(NC(=O)[C@@H]2O[C@@](C)(C(F)(F)F)[C@@H](C)[C@H]2c2ccc(F)c(F)c2OC)ccn1 [Example 2]
97.24	COc1c([C@H]2[C@H](C(=O)Nc3ccc(F)c(C(=O)NO)c3)O[C@@](C)(C(F)(F)F)[C@H]2C)ccc(F)c1F [Example 9]
50.04	COc1c([C@H]2[C@H](C(=O)Nc3ccnc(C(=O)NN)c3)O[C@@](C)(C(F)(F)F)[C@H]2C)ccc(F)c1F [Example 5]

Further lines, the compound ahead of its results:

Compound	Inhibition rate (%)
COc1c([C@H]2[C@H](C(=O)Nc3ccc(F)c(C(=N)NO)c3F)O[C@@](C)(C(F)(F)F)[C@H]2C)ccc(F)c1F [Example 15]	56.23
COc1c([C@H]2[C@H](C(=O)Nc3cc(F)c(F)c(C(=N)NO)c3)O[C@@](C)(C(F)(F)F)[C@H]2C)ccc(F)c1F [Example 13]	89.85
COc1c(C2C(C(=O)Nc3ccc(F)c(C(=N)NC#N)c3)OC(C)(C(F)(F)F)C2C)ccc(F)c1F (centres unmarked) [Example 16]	95.94
COc1c([C@H]2[C@H](C(=O)Nc3cc(C(=N)NO)c(F)cc3F)O[C@@](C)(C(F)(F)F)[C@H]2C)ccc(F)c1F [Example 14]	84.01
COc1c([C@H]2[C@H](C(=O)Nc3ccc(C(F)(F)F)c(C(=N)NO)c3)O[C@@](C)(C(F)(F)F)[C@H]2C)ccc(F)c1F [Example 12]	76.58

Same assay, conditions: CHO cell line stably expressing Nav1.8; patch-clamp; test concentration not given

Compound	Inhibition rate (%)
CONC(=O)c1cc(NC(=O)[C@@H]2O[C@@](C)(C(F)(F)F)[C@@H](C)[C@H]2c2ccc(F)c(F)c2OC)ccn1 [Example 1]	80.08
CNNC(=O)c1cc(NC(=O)[C@@H]2O[C@@](C)(C(F)(F)F)[C@@H](C)[C@H]2c2ccc(F)c(F)c2OC)ccn1 [Example 6]	71.63
